These results are taken from patent publication US10967069B2, “Bio-orthogonal drug activation” (TAGWORKS PHARMACEUTICALS B.V., priority 2011, dated 2021).

Usually half-life stands for how long it takes for the measured level to halve.

Each structure is given as a SMILES string.

A short description of data set [1]: Hydrolytic stability tests of tetrazines (UV, decrease of absorption at 525 nm). It counts as physicochemical. The settings on record: PBS buffer, 20° C. From the text: This solution was filtered and, the decrease of the absorption band at 525 nm was monitored using UV spectroscopy.
Data set [2] in a line: Reactivity of tetrazines towards trans-cyclooct-4-ene-1-ol (axial isomer), competition experiment. As to conditions: reference tetrazine 5; acetonitrile/water. How it is done:
A competition experiment was performed to determine the reactivity ratio of a specific tetrazine and 3-(5-acetamido-2-pyridyl)-6-(2-pyridyl)-1,2,4,5-tetrazine (5) (that was chosen as the reference tetrazine), in the inverse-electron demand Diels-Alder reaction with trans-cyclooct-4-ene-1-ol (“minor” isomer with OH in axial position, see: Whitham et al. J. Chem. Soc. (C), 1971, 883-896)).
To acetonitrile (0.100 mL) was added 5 μL of a solution of the specific tetrazine in DMSO (25 mM) and 5 μL of a solution of the reference tetrazine in DMSO (25 mM). This mixture was diluted with water (0.9 mL), and the absolute amounts of both tetrazines was determined by HPLC-MS/PDA analysis. Subsequently, a solution of trans-cyclooct-4-ene-1-ol (axial isomer) in DMSO (25 μL 2.5 mM) was slowly added, and the mixture was stirred for 5 min. Again, the absolute amounts of both tetrazines was determined by HPLC-MS/PDA analysis, and conversions for both tetrazines was calculated. From these conversions, the reactivity ratio (R=k2,TCO/k2,Ref) of both tetrazines was calculated using the mathematical procedure from Ingold and Shaw (J. Chem. Soc., 1927, 2918-2926).

The nature of data set [3]: Stability of trans-cyclooctene derivatives in PBS (HPLC-MS). The format is physicochemical. The settings on record: PBS buffer, 20° C., in the dark, estimation.
Protocol: 10 μL of a solution of the specific trans-cyclooctene derivative in dioxane (25 mM) was diluted with PBS buffer (3 mL), and this solution was stored at 20° C. in the dark. The fate of the TCO compound was monitored by HPLC-MS analysis, and an estimation of the half-life time was made.

In data set [1], `CCCCNC(=O)c1ccc(-c2nnc(-c3ncccn3)nn2)nc1` showed a half-life at 83 µM of 25.2 min. Also, in data set [2], the “Reactivity ratio (R = k2,TZ/k2,Ref)” value is reported as 2.

For `COc1cccc2c1C(=O)c1c(O)c3c(c(O)c1C2=O)C[C@@](O)(C(=O)CO)CC3OC1CC(NC(=O)OC2/C=C/CCCCC2)[C@H](O)C(C)O1` (stereo partly drawn), the half-life at 83 µM in data set [3] was above 20 days.
